Results published in US10322111B2, “Chemokine receptor binding heterocyclic compounds with enhanced efficacy” (Genzyme Corporation, priority 2001, dated 2019).
Where two headings read alike, the source gives them in different places.

Assays:
[1] = test system: unseparated and low density nucleated cells; conditions: 80 μg/kg s.c.; for % CHG, nucleated cellularity PBL-LD / % CHG, nucleated cellularity PBL-US / Fold Change Compared to TIME = 0, nucleated cellularity PBL-LD, MEAN / Fold Change Compared to TIME = 0, nucleated cellularity PBL-US, MEAN: average of 5 donors
[2] = test system: CFU-GM progenitor cells; conditions: 80 μg/kg s.c.; for % CHG, CFU-GM, agar culture / mean fold change compared to T 0, CFU-GM, agar culture, MEAN: all five donors

c1cc(CN2CCCNCCNCCCNCC2)ccc1CN1CCCNCCNCCCNCC1 [AMD3100, 1,1′-[1,4-phenylene-bis(methylene)]-bis-1,4,8,11-tetraazacyclotetradecane]
FOLD CHANGE COMPARED TO TIME = 0, nucleated cellularity PBL-LD ([1]; P5, T = 24 h after injection): 1.12 fold | FOLD CHANGE COMPARED TO TIME = 0, nucleated cellularity PBL-US ([1]; P5, T = 24 h after injection): 0.99 fold | % CHG, nucleated cellularity PBL-LD ([1]; T = 1 h after injection): 86.2% | % CHG, nucleated cellularity PBL-US ([1]; T = 1 h after injection): 68.6% | Fold Change Compared to TIME = 0, nucleated cellularity PBL-LD, MEAN ([1]; T = 1 h after injection): 1.86 fold | Fold Change Compared to TIME = 0, nucleated cellularity PBL-US, MEAN ([1]; T = 1 h after injection): 1.69 fold | % CHG, nucleated cellularity PBL-LD ([1]; T = 3 h after injection): 185.6% | % CHG, nucleated cellularity PBL-US ([1]; T = 3 h after injection): 180.2% | Fold Change Compared to TIME = 0, nucleated cellularity PBL-LD, MEAN ([1]; T = 3 h after injection): 2.86 fold | Fold Change Compared to TIME = 0, nucleated cellularity PBL-US, MEAN ([1]; T = 3 h after injection): 2.80 fold | % CHG, nucleated cellularity PBL-LD ([1]; T = 6 h after injection): 266.3% | % CHG, nucleated cellularity PBL-US ([1]; T = 6 h after injection): 225.8% | Fold Change Compared to TIME = 0, nucleated cellularity PBL-LD, MEAN ([1]; T = 6 h after injection): 3.66 fold | Fold Change Compared to TIME = 0, nucleated cellularity PBL-US, MEAN ([1]; T = 6 h after injection): 3.26 fold | % CHG, nucleated cellularity PBL-LD ([1]; T = 9 h after injection): 264.3% | % CHG, nucleated cellularity PBL-US ([1]; T = 9 h after injection): 209.4% | Fold Change Compared to TIME = 0, nucleated cellularity PBL-LD, MEAN ([1]; T = 9 h after injection): 3.64 fold | Fold Change Compared to TIME = 0, nucleated cellularity PBL-US, MEAN ([1]; T = 9 h after injection): 3.09 fold | % CHG, nucleated cellularity PBL-LD ([1]; T = 24 h after injection): 4.6% | % CHG, nucleated cellularity PBL-US ([1]; T = 24 h after injection): 7.0% | Fold Change Compared to TIME = 0, nucleated cellularity PBL-LD, MEAN ([1]; T = 24 h after injection): 1.05 fold | Fold Change Compared to TIME = 0, nucleated cellularity PBL-US, MEAN ([1]; T = 24 h after injection): 1.07 fold | Absolute # of Progenitors per ML, CFU-GM, AGAR Culture ([2]; P1, T = 1 h after injection): 710 per ML | fold change from T=0, CFU-GM, agar culture ([2]; P1, T = 1 h after injection): 3.05 fold | Absolute # of Progenitors per ML, CFU-GM, AGAR Culture ([2]; P1, T = 3 h after injection): 2070 per ML | fold change from T=0, CFU-GM, agar culture ([2]; P1, T = 3 h after injection): 8.88 fold | Absolute # of Progenitors per ML, CFU-GM, AGAR Culture ([2]; P1, T = 6 h after injection): 4142 per ML | fold change from T=0, CFU-GM, agar culture ([2]; P1, T = 6 h after injection): 17.77 fold | Absolute # of Progenitors per ML, CFU-GM, AGAR Culture ([2]; P2, T = 1 h after injection): 376 per ML | fold change from T=0, CFU-GM, agar culture ([2]; P2, T = 1 h after injection): 3.74 fold | Absolute # of Progenitors per ML, CFU-GM, AGAR Culture ([2]; P2, T = 3 h after injection): 953 per ML | fold change from T=0, CFU-GM, agar culture ([2]; P2, T = 3 h after injection): 9.49 fold | Absolute # of Progenitors per ML, CFU-GM, AGAR Culture ([2]; P2, T = 6 h after injection): 2409 per ML | fold change from T=0, CFU-GM, agar culture ([2]; P2, T = 6 h after injection): 24.01 fold | Absolute # of Progenitors per ML, CFU-GM, AGAR Culture ([2]; P2, T = 9 h after injection): 1032 per ML | fold change from T=0, CFU-GM, agar culture ([2]; P2, T = 9 h after injection): 10.28 fold | Absolute # of Progenitors per ML, CFU-GM, AGAR Culture ([2]; P2, T = 24 h after injection): 371 per ML | fold change from T=0, CFU-GM, agar culture ([2]; P2, T = 24 h after injection): 3.69 fold | Absolute # of Progenitors per ML, CFU-GM, AGAR Culture ([2]; P3, T = 1 h after injection): 234 per ML | fold change from T=0, CFU-GM, agar culture ([2]; P3, T = 1 h after injection): 1.67 fold | Absolute # of Progenitors per ML, CFU-GM, AGAR Culture ([2]; P3, T = 3 h after injection): 1049 per ML | fold change from T=0, CFU-GM, agar culture ([2]; P3, T = 3 h after injection): 7.47 fold | Absolute # of Progenitors per ML, CFU-GM, AGAR Culture ([2]; P3, T = 6 h after injection): 1972 per ML | fold change from T=0, CFU-GM, agar culture ([2]; P3, T = 6 h after injection): 14.04 fold | Absolute # of Progenitors per ML, CFU-GM, AGAR Culture ([2]; P3, T = 9 h after injection): 1085 per ML | fold change from T=0, CFU-GM, agar culture ([2]; P3, T = 9 h after injection): 7.72 fold | Absolute # of Progenitors per ML, CFU-GM, AGAR Culture ([2]; P3, T = 24 h after injection): 159 per ML | fold change from T=0, CFU-GM, agar culture ([2]; P3, T = 24 h after injection): 1.13 fold | Absolute # of Progenitors per ML, CFU-GM, AGAR Culture ([2]; P4, T = 1 h after injection): 336 per ML | fold change from T=0, CFU-GM, agar culture ([2]; P4, T = 1 h after injection): 2.71 fold | Absolute # of Progenitors per ML, CFU-GM, AGAR Culture ([2]; P4, T = 3 h after injection): 1299 per ML | fold change from T=0, CFU-GM, agar culture ([2]; P4, T = 3 h after injection): 10.46 fold | Absolute # of Progenitors per ML, CFU-GM, AGAR Culture ([2]; P4, T = 6 h after injection): 1623 per ML | fold change from T=0, CFU-GM, agar culture ([2]; P4, T = 6 h after injection): 13.07 fold | Absolute # of Progenitors per ML, CFU-GM, AGAR Culture ([2]; P4, T = 9 h after injection): 1268 per ML | fold change from T=0, CFU-GM, agar culture ([2]; P4, T = 9 h after injection): 10.22 fold | Absolute # of Progenitors per ML, CFU-GM, AGAR Culture ([2]; P4, T = 24 h after injection): 162 per ML | fold change from T=0, CFU-GM, agar culture ([2]; P4, T = 24 h after injection): 1.30 fold | Absolute # of Progenitors per ML, CFU-GM, AGAR Culture ([2]; P5, T = 1 h after injection): 298 per ML | Absolute # of Progenitors per ML, CFU-GM, AGAR Culture ([2]; P5, T = 3 h after injection): 664 per ML | Absolute # of Progenitors per ML, CFU-GM, AGAR Culture ([2]; P5, T = 6 h after injection): 2153 per ML | Absolute # of Progenitors per ML, CFU-GM, AGAR Culture ([2]; P5, T = 9 h after injection): 1326 per ML | Absolute # of Progenitors per ML, CFU-GM, AGAR Culture ([2]; P5, T = 24 h after injection): 229 per ML | fold change from T=0, CFU-GM, agar culture ([2]; P6, T = 1 h after injection): 2.87 fold | fold change from T=0, CFU-GM, agar culture ([2]; P6, T = 3 h after injection): 6.40 fold | fold change from T=0, CFU-GM, agar culture ([2]; P6, T = 6 h after injection): 20.75 fold | fold change from T=0, CFU-GM, agar culture ([2]; P6, T = 9 h after injection): 12.78 fold | fold change from T=0, CFU-GM, agar culture ([2]; P6, T = 24 h after injection): 2.20 fold | % CHG, CFU-GM, agar culture ([2]; T = 1 h after injection): 180.8% | mean fold change compared to T 0, CFU-GM, agar culture, MEAN ([2]; T = 1 h after injection): 2.81 fold | % CHG, CFU-GM, agar culture ([2]; T = 3 h after injection): 754.1% | mean fold change compared to T 0, CFU-GM, agar culture, MEAN ([2]; T = 3 h after injection): 8.54 fold | % CHG, CFU-GM, agar culture ([2]; T = 6 h after injection): 1692.8% | mean fold change compared to T 0, CFU-GM, agar culture, MEAN ([2]; T = 6 h after injection): 17.93 fold | % CHG, CFU-GM, agar culture ([2]; T = 9 h after injection): 924.9% | mean fold change compared to T 0, CFU-GM, agar culture, MEAN ([2]; T = 9 h after injection): 10.25 fold | % CHG, CFU-GM, agar culture ([2]; T = 24 h after injection): 108.3% | mean fold change compared to T 0, CFU-GM, agar culture, MEAN ([2]; T = 24 h after injection): 2.08 fold
